Assays:
[1] = test system: human lung cancer strain NCI-H441; type: cell-based
Method in brief: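 Signal came from […] measured per well once the reagent was added. Beforehand, cells were cultured at 37°C and 5% carbon dioxide on a compound series serially diluted in dimethyl sulfoxide.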

HRAS wild-type protein = HRAS wild-type protein (Homo sapiens, UniProt P01112); experiment: Binding to HRAS by surface plasmon resonance (SPR), KD and KD ratio to KRAS; details: ratio of the KD value with respect to HRAS wild-type protein to the KD value with respect to KRAS
Chain of HRAS wild-type protein (P01112 whole entry): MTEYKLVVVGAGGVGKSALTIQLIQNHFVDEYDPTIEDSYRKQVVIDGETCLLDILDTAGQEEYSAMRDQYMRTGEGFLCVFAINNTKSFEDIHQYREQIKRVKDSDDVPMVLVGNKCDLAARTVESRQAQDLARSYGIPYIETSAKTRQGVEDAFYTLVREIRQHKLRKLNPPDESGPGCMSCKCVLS
Method in brief: (§1)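 Each cycle, GDP-bound biotin-Avi RAS was captured (~100–300 RU), compound concentrations were injected low to high for 75 s each at 100 µL/min, then the chip was regenerated. Buffer: HBS pH 7.4, 10 mM MgCl2, 10 µM GDP, 1 mM DTT, 4% DMSO; 30°C. KD from a 1:1 binding model.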

[2] = target: GDP-bound NRAS wild-type protein (Homo sapiens, UniProt P01111); experiment: Binding to NRAS by surface plasmon resonance (SPR), KD and KD ratio to KRAS; details: ratio of the KD value with respect to GDP-bound NRAS wild-type protein to the KD value with respect to KRAS
Chain of GDP-bound NRAS wild-type protein (P01111 whole entry): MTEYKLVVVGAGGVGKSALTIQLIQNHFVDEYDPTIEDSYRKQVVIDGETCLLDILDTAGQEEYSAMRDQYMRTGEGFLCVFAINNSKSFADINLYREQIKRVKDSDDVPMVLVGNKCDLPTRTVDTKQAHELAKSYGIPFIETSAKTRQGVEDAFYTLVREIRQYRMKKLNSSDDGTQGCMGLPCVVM
Method in brief: as §1

SMILES | IC50 [1] | HRAS /KRAS (HRAS wild-type protein) | NRAS /KRAS [2]
CC[C@H](C)[C@@H]1NC(=O)[C@H](CC)N(C)C(=O)C[C@@H](C(=O)N(C)C)N(CC)C(=O)[C@H](C2CCCC2)N(C)C(=O)C2(CCC2)NC(=O)[C@@H]2CCN2C(=O)[C@H](CCc2cc(F)c(C(F)(F)F)c(F)c2)NC(=O)CN(C)C(=O)[C@H](Cc2ccc(C(F)(F)F)cc2)N2CCCC[C@@H](C2=O)N(C)C(=O)CN(C)C1=O [PP0660] | 131 nM | B (a compound having 3 or more and less than 10 is denoted as B) | B (a compound having 3 or more and less than 10 is denoted as B)
CC[C@H](C)[C@@H]1NC(=O)[C@H](CC)N(C)C(=O)C[C@@H](C(=O)N(C)C)N(CC)C(=O)[C@H](C2CCCC2)N(C)C(=O)C2(CCC2)NC(=O)[C@@H]2CCCCN2C(=O)[C@H](CCc2cc(F)c(C(F)(F)F)c(F)c2)NC(=O)CN(C)C(=O)[C@H](Cc2ccc(C(F)(F)F)cc2)N2CCCC[C@@H](C2=O)N(C)C(=O)CN(C)C1=O [PP0661] | 56.6 nM | B (a compound having 3 or more and less than 10 is denoted as B) | C (A compound having a KD ratio of 0.1 or more and less than 3 is denoted as C)
CC[C@H](C)[C@@H]1NC(=O)[C@H](CC(C)C)N(C)C(=O)C[C@@H](C(=O)N2CCOCC2)N(C)C(=O)[C@H](C2CCCC2)N(C)C(=O)C2(CCCC2)NC(=O)[C@@H]2[C@@H](O)CCN2C(=O)[C@H](CCc2cc(F)c(C(F)(F)F)c(F)c2)NC(=O)CN(C)C(=O)[C@H](Cc2ccc(C(F)(F)F)cc2)N2CCCCC[C@@H](C2=O)N(C)C(=O)CN(C)C1=O [PP0662] | 1570 nM | B (a compound having 3 or more and less than 10 is denoted as B) | B (a compound having 3 or more and less than 10 is denoted as B)
CCO[C@@H]1C[C@H]2C(=O)NC3(CCC3)C(=O)N(C)[C@@H](C3CCCC3)C(=O)N(C)[C@H](C(=O)N(C)C)CC(=O)N(C)[C@@H](CC)C(=O)N[C@@H]([C@@H](C)CC)C(=O)N(C)CC(=O)N(C)[C@H]3CCCCCN(C3=O)[C@@H](Cc3ccc(C(F)(F)F)cc3)C(=O)N(C)CC(=O)N[C@@H](CCc3cc(F)c(C(F)(F)F)c(F)c3)C(=O)N2C1 [PP0663] | 22.7 nM | B (a compound having 3 or more and less than 10 is denoted as B) | B (a compound having 3 or more and less than 10 is denoted as B)
C=CC[C@H]1C(=O)N[C@@H]([C@@H](C)CC)C(=O)N(C)CC(=O)N(C)[C@H]2CCCCCN(C2=O)[C@@H](Cc2ccc(C(F)(F)F)cc2)C(=O)N(C)CC(=O)N[C@@H](CCc2cc(F)c(C(F)(F)F)c(F)c2)C(=O)N2C[C@H](OCC)C[C@H]2C(=O)NC2(CCC2)C(=O)N(C)[C@@H](C2CCCC2)C(=O)N(C)[C@H](C(=O)N(C)C)CC(=O)N1C [PP0665] | 15.6 nM | B (a compound having 3 or more and less than 10 is denoted as B) | B (a compound having 3 or more and less than 10 is denoted as B)
C#CC[C@H]1C(=O)N[C@@H]([C@@H](C)CC)C(=O)N(C)CC(=O)N(C)[C@H]2CCCCCN(C2=O)[C@@H](Cc2ccc(C(F)(F)F)cc2)C(=O)N(C)CC(=O)N[C@@H](CCc2cc(F)c(C(F)(F)F)c(F)c2)C(=O)N2C[C@H](OCC)C[C@H]2C(=O)NC2(CCC2)C(=O)N(C)[C@@H](C2CCCC2)C(=O)N(C)[C@H](C(=O)N(C)C)CC(=O)N1C [PP0666] | 19.1 nM | B (a compound having 3 or more and less than 10 is denoted as B) | B (a compound having 3 or more and less than 10 is denoted as B)
CCO[C@@H]1C[C@H]2C(=O)NC3(CCC3)C(=O)N(C)[C@@H](C3CCCC3)C(=O)N(C)[C@H](C(=O)N(C)C)CC(=O)N(C)[C@@H](CC3CC3)C(=O)N[C@@H]([C@@H](C)CC)C(=O)N(C)CC(=O)N(C)[C@H]3CCCCCN(C3=O)[C@@H](Cc3ccc(C(F)(F)F)cc3)C(=O)N(C)CC(=O)N[C@@H](CCc3cc(F)c(C(F)(F)F)c(F)c3)C(=O)N2C1 [PP0667] | 8.8 nM | B (a compound having 3 or more and less than 10 is denoted as B) | B (a compound having 3 or more and less than 10 is denoted as B)

From patent EP4603105A1, “PHARMACEUTICAL COMPOSITION CONTAINING CYCLIC COMPOUND HAVING SELECTIVE KRAS INHIBITORY EFFECT AGAINST HRAS AND NRAS” (CHUGAI SEIYAKU KABUSHIKI KAISHA, priority 2022, dated 2024)
